Assay results taken from patent US20230295166A1, “ATR INHIBITORS AND USES THEREOF” (ANTENGENE DISCOVERY LIMITED, priority 2020, published 2023).

Columns and labels:
[1] = molecular target: ATR kinase (Homo sapiens (Human), UniProt Q13535); test: ATR inhibition assay (mobility shift assay, phosphorylation of FAM-RAD17); format: biochemical; conditions: ATR kinase (Eurofins), substrate FAM-RAD17, mobility shift
Protocol: Assay 1: ATR Inhibition Assay
Detection of ATR kinase activity utilized the Mobility shift assay to measure the phosphorylation of the substrate protein FAM-RAD17 (GL, Cat. No. 514318, Lot. No. P19042-MJ524315). The assay was developed and conducted at Chempartner. All the test compounds were dissolved in 100% DMSO at concentration of 20 mM, then prepare compounds and conducted the assay as follows: • 1) Transfer 80 μl 20 mM compound to 40 μl of 100% DMSO in a 96-well plate. • 2) Serially dilute the compound by transferring 20 μl to 60 μl of 100% DMSO in the next well and so forth for a total of 10 concentrations. • 3) Add 100 μl of 100% DMSO to two empty wells for no compound control and no enzyme control in the same 96-well plate. Mark the plate as source plate. • 4) Transfer 40 μl of compound from source plate to a new 384-well plate as the intermediate plate. • 5) Transfer 60 nl compounds to assay plate by Echo. • 6) Add ATR kinase (Eurofins, Cat. No. 14-953, Lot. No. D14 JP007N) into Kinase base buffer (50 mM HEPES, pH 7.5; 0.0015% Brij-35; 0.01% Triton) to prepare 2× enzyme solution, then add 10 μl of 2× enzyme solution to each well of the 384-well assay plate, incubate at room temperature for 10 min. • 7) Add FAM-RAD17 and ATP (Sigma, Cat. No. A7699-1G, CAS No. 987-65-5) in the kinase base buffer to prepare 2×peptide solution, then add 10 μl to the assay plate. • 8) Incubate at 28° C. for specified period of time. Add 40 μl of stop buffer (100 mM HEPES, pH 7.5; 0.015% Brij-35; 0.2% Coating Reagent #3; 50 mM EDTA) to stop reaction. • 9) Collect data on Caliper. Convert conversion values to inhibition values.
Percent inhibition=(max−conversion)/(max−min)*100 wherein “max” stands for DMSO control; “min” stands for low control.
Fit the data in XLFit excel add-in version 5.4.0.8 to obtain IC50 values. Equation used is:
Y=Bottom+(Top−Bottom)/(1+(IC50/X)^HillSlope) wherein X means concentration in a format not transformed to logarithms.

[2] = test system: LoVo (CCL-229) cells; test: Tumor cell anti-proliferation assay (CTG assay); format: cell-based; conditions: LoVo human colorectal cancer cells, 96 h, CellTiter-Glo
Protocol: Assay 2: Tumor Cell Anti-proliferation Assay (CTG Assay)
Human colorectal cancer cells HT-29 (HTB-38) and LoVo (CCL-229) were selected for the CTG assay, the two cell lines were originally obtained from the American Type Culture Collection (ATCC). FBS and appropriate additives were added into base medium to prepare complete medium, then the cell layer was briefly rinsed with 0.25% (w/v) Trypsin-0.038% (w/v) EDTA solution to remove all traces of serum that contains trypsin inhibitor. After that, appropriate volume of Trypsin-EDTA solution was added to flask and cells under an inverted microscope were observed until cell layer was dispersed. At last, appropriate volume of complete growth medium was added and cells were aspirated by gently pipetting. Numbers were collected and counted with Vi-cell XR and cell density was adjusted, cells were seeded into 96-well opaque-walled clear bottom tissue-culture treated plates in the CO2 incubator for 20-24 hours. All the test compounds were at 10 mM in DMSO. Compounds were then added to the cell media in 3-fold serial dilutions, the final DMSO concentration was 0.5%. Plates were incubated for 96 h at 5% CO2, 37° C. Before the measurement, the appropriate volume of CellTiter-Glo Buffer was transferred into the amber bottle containing CellTiter-Glo substrate to reconstitute the lyophilized enzyme/substrate mixture, mixed gently, thereby forming the CellTiter-Glo Reagent (Promega Cat. No. G7573). The plate and its contents were equilibrated to room temperature for approximately 30 minutes, then 100 μL of CellTiter-Glo Reagent was added to the assay plate, the contents were mixed for 2 minutes on an orbital shaker to induce cell lysis, incubated at room temperature for 10 minutes to stabilize luminescent signal. At last the clear bottom was pasted with white back seal and luminescence was recorded with Enspire. IC50 and GI50 values were calculated with XLFit curve fitting software using 4 Parameter Logistic Model Y=Bottom+(Top−Bottom)/(1+(IC50/X)^HillSlope).

Chain of ATR kinase (Q13535 whole entry): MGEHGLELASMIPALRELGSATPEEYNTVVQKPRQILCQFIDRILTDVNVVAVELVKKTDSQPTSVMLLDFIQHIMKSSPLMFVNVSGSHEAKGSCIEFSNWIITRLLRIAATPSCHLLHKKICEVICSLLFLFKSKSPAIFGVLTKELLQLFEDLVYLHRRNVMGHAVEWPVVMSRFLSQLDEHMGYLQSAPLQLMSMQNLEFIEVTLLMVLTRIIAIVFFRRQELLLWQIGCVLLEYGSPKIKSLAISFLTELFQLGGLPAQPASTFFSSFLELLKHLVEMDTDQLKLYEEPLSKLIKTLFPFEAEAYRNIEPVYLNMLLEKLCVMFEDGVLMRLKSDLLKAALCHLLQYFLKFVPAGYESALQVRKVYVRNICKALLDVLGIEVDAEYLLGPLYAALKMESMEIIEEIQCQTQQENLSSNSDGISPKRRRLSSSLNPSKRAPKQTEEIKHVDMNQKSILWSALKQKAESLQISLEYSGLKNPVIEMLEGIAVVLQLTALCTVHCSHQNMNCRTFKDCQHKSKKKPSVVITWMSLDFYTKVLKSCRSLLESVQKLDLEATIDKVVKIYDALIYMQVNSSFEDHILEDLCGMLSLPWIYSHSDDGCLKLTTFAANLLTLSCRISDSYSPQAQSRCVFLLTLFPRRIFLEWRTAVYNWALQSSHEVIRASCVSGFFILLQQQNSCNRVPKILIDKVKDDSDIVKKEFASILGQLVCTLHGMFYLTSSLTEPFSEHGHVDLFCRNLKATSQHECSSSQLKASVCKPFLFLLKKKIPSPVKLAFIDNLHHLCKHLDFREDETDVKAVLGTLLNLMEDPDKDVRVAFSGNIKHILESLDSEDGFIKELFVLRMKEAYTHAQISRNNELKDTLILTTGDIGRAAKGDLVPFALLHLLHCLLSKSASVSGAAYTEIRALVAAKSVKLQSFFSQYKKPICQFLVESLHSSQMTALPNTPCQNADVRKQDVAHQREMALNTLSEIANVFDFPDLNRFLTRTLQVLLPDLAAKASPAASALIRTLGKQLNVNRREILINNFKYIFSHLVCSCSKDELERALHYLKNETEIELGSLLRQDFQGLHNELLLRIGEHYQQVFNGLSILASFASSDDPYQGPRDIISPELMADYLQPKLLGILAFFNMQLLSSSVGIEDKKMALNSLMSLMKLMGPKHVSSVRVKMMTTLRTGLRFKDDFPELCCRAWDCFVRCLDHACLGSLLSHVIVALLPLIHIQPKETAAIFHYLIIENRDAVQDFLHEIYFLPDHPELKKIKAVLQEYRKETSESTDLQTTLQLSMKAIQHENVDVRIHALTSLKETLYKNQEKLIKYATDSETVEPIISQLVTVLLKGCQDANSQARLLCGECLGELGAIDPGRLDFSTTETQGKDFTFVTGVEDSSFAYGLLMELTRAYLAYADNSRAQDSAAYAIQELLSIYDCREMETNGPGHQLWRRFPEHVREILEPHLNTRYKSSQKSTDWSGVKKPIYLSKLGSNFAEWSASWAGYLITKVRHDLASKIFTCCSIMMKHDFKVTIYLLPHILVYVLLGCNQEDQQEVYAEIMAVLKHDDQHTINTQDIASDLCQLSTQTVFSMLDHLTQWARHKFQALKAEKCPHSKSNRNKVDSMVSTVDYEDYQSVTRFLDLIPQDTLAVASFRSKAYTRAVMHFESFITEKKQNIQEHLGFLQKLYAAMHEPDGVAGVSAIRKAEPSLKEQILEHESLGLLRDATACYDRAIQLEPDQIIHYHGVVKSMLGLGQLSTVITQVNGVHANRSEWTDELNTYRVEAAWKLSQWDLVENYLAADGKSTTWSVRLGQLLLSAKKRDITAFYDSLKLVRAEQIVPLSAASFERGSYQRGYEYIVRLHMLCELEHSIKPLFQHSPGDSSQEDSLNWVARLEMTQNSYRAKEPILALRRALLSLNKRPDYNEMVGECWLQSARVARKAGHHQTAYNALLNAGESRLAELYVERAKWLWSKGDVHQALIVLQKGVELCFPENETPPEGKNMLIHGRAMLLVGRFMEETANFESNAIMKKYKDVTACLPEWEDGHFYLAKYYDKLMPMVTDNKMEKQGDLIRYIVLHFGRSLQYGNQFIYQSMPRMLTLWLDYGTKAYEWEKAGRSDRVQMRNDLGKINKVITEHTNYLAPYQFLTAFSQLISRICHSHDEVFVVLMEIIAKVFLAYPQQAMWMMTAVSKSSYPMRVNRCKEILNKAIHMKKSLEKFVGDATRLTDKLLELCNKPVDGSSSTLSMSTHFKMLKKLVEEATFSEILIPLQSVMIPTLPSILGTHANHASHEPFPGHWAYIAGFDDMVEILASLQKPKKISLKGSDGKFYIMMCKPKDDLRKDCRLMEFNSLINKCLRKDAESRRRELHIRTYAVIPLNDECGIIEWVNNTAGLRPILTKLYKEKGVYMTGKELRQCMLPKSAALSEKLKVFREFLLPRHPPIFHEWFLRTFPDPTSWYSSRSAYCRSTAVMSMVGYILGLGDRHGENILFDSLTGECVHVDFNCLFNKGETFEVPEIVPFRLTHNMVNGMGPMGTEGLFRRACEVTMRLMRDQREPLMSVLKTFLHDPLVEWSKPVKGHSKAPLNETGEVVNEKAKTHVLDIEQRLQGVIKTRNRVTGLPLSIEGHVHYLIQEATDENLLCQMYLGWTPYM
Chain of ATR kinase (Q8WXE1 whole entry partner): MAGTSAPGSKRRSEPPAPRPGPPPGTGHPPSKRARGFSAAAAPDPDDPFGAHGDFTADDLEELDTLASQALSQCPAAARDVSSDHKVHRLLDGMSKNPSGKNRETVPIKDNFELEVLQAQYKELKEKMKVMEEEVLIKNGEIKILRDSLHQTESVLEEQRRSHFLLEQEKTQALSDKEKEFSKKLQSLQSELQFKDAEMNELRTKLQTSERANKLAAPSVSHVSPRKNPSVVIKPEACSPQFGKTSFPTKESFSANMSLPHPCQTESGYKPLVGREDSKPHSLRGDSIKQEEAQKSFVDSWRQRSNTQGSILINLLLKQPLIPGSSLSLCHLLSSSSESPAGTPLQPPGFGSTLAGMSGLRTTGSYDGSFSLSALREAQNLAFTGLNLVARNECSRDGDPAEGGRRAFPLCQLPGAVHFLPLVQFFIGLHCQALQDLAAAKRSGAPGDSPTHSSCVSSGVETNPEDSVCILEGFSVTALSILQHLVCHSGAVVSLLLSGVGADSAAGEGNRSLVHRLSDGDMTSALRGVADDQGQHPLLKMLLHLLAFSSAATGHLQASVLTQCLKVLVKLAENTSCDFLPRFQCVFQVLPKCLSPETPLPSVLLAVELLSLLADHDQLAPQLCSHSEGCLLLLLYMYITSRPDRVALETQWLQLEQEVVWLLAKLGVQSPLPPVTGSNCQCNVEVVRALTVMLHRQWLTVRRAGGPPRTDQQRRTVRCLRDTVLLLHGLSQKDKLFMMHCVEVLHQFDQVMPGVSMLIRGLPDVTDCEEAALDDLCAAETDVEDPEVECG

| SMILES | IC50 [1] [nM] | IC50 [2] [nM] |
| --- | --- | --- |
| C[C@@H]1COCCN1c1cc(-c2ccnn2C)n2ncc(-c3ccn[nH]3)c2n1 [Example 1, (R)-3-methyl-4-(7-(1-methyl-1H-pyrazol-5-yl)-3-(1H-pyrazol-5-yl)pyrazolo[1,5-a]pyrimidin-5-yl)morpholine] | < 100 | 491 |
| C[C@@H]1COCCN1c1cc(C2(S(C)(=O)=O)CC2)n2ncc(-c3ccn[nH]3)c2n1 [Example 5, (R)-3-methyl-4-(7-(1-(methylsulfonyl)cyclopropyl)-3-(1H-pyrazol-5-yl)pyrazolo[1,5-a]pyrimidin-5-yl)morpholine] | < 100 | 516 |
| C[C@@H]1COCCN1c1cc(-c2cccnc2F)n2ncc(-c3ccn[nH]3)c2n1 [Example 6, (R)-4-(7-(2-fluoropyridin-3-yl)-3-(1H-pyrazol-5-yl)pyrazolo[1,5-a]pyrimidin-5-yl)-3-methylmorpholine] | < 100 | 803 |
| C[C@@H]1COCCN1c1cc(C2(S(C)(=O)=O)CC2)n2ncc(-c3cc[nH]c3)c2n1 [Example 9, (R)-3-methyl-4-(7-(1-(methylsulfonyl)cyclopropyl)-3-(1H-pyrrol-3-yl)pyrazolo[1,5-a]pyrimidin-5-yl)morpholine] | < 100 |  |
| C[C@@H]1COCCN1c1cc(-c2ccn[nH]2)n2ncc(-c3ccn[nH]3)c2n1 [Example 10, (R)-4-(3,7-di(1H-pyrazol-5-yl)pyrazolo[1,5-a]pyrimidin-5-yl)-3-methylmorpholine] | < 100 |  |
| Cc1cc(-c2cnn3c(C4(S(C)(=O)=O)CC4)cc(N4CCOC[C@H]4C)nc23)[nH]n1 [Example 11, (R)-3-methyl-4-(3-(3-methyl-1H-pyrazol-5-yl)-7-(1-(methylsulfonyl)cyclopropyl)pyrazolo[1,5-a]pyrimidin-5-yl)morpholine] | < 100 | 384 |
| Cc1cn[nH]c1-c1cnn2c(C3(S(C)(=O)=O)CC3)cc(N3CCOC[C@H]3C)nc12 [Example 14, (R)-3-methyl-4-(3-(4-methyl-1H-pyrazol-5-yl)-7-(1-(methylsulfonyl)cyclopropyl)pyrazolo[1,5-a]pyrimidin-5-yl)morpholine] | > 500 |  |
| Cc1cc(-c2cnn3c(-c4ccnn4C)cc(N4CCOC[C@H]4C)nc23)[nH]n1 [Example 18, (R)-3-methyl-4-(7-(1-methyl-1H-pyrazol-5-yl)-3-(3-methyl-1H-pyrazol-5-yl)pyrazolo[1,5-a]pyrimidin-5-yl)morpholine] | < 100 | 384 |
| C[C@@H]1COCCN1c1cc(-c2ccnn2C)c2ncc(-c3ccn[nH]3)n2n1 [Example 21, (R)-3-methyl-4-(8-(1-methyl-1H-pyrazol-5-yl)-3-(1H-pyrazol-5-yl)imidazo[1,2-b]pyridazin-6-yl)morpholine] | < 100 |  |
| C[C@@H]1COCCN1c1cc(C2(S(C)(=O)=O)CC2)c2ncc(-c3ccn[nH]3)n2n1 [Example 22, (R)-3-methyl-4-(8-(1-(methylsulfonyl)cyclopropyl)-3-(1H-pyrazol-5-yl)imidazo[1,2-b]pyridazin-6-yl)morpholine] | < 100 | 622 |
| C[C@@H]1COCCN1c1cc(-c2ccnn2C)c2cnc(-c3ccn[nH]3)n2n1 [Example 27, (R)-3-methyl-4-(4-(1-methyl-1H-pyrazol-5-yl)-7-(1H-pyrazol-5-yl)imidazo[1,5-b]pyridazin-2-yl)morpholine] | < 100 | 67 |
| C[C@@H]1COCCN1c1cc(-c2ccnn2C)c2snc(-c3ccn[nH]3)c2n1 [Example 29, (3R)-3-methyl-4-[7-(1-methyl-1H-pyrazol-5-yl)-3-(1H-pyrazol-5-yl)-[1,2]thiazolo[4,5-b]pyridin-5-yl]morpholine] | < 100 | 14 |
| C[C@@H]1COCCN1c1cc(C2(S(C)(=O)=O)CC2)c2cnc(-c3ccn[nH]3)n2n1 [Example 30, (R)-3-methyl-4-(4-(1-(methylsulfonyl)cyclopropyl)-7-(1H-pyrazol-5-yl)imidazo[1,5-b]pyridazin-2-yl)morpholine] | < 100 | 152 |
| Cc1cc(-c2ncc3c(C4(S(C)(=O)=O)CC4)cc(N4CCOC[C@H]4C)nn23)[nH]n1 [Example 31, (R)-3-methyl-4-(7-(3-methyl-1H-pyrazol-5-yl)-4-(1-(methylsulfonyl)cyclopropyl)imidazo[1,5-b]pyridazin-2-yl)morpholine] | < 100 | 84 |
| CS(=O)(=O)C1(c2cc(N3C[C@H]4CC[C@@H](C3)O4)nn3c(-c4ccn[nH]4)ncc23)CC1 [Example 32, (1R,5S)-3-(4-(1-(methylsulfonyl)cyclopropyl)-7-(1H-pyrazol-5-yl)imidazo[1,5-b]pyridazin-2-yl)-8-oxa-3-azabicyclo[3.2.1]octane] | < 100 | 553 |
| Cc1nnn(C)c1-c1cc(N2CCOC[C@H]2C)nn2c(-c3ccn[nH]3)ncc12 [Example 33, (3R)-4-[4-(dimethyl-1H-1,2,3-triazol-5-yl)-7-(1H-pyrazol-5-yl)imidazo[1,5-b]pyridazin-2-yl]-3-methylmorpholine] | < 100 | 162 |
| Cc1cc(-c2ncc3c(-c4ccnn4C)cc(N4CCOC[C@H]4C)nn23)[nH]n1 [Example 34, (R)-3-methyl-4-(4-(1-methyl-1H-pyrazol-5-yl)-7-(3-methyl-1H-pyrazol-5-yl)imidazo[1,5-b]pyridazin-2-yl)morpholine] | < 100 | 23 |
| CCP(=O)(CC)c1cc(N2CCOC[C@H]2C)nn2c(-c3ccn[nH]3)ncc12 [Example 39, (3R)-4-[4-(diethylphosphoryl)-7-(1H-pyrazol-5-yl)imidazo[1,5-b]pyridazin-2-yl]-3-methylmorpholine] | < 100 |  |
| Cc1cc(-c2nsc3c(-c4c(C)nnn4C)cc(N4CCOC[C@H]4C)nc23)[nH]n1 [Example 48, (R)-4-(7-(1,4-dimethyl-1H-1,2,3-triazol-5-yl)-3-(3-methyl-1H-pyrazol-5-yl)isothiazolo[4,5-b]pyridin-5-yl)-3-methylmorpholine] | < 100 | 33.3 |
| Cc1cc(-c2nsc3c(C4(S(C)(=O)=O)CC4)cc(N4CCOC[C@H]4C)nc23)[nH]n1 [Example 50, (R)-3-methyl-4-(3-(3-methyl-1H-pyrazol-5-yl)-7-(1-(methylsulfonyl)cyclopropyl)isothiazolo[4,5-b]pyridin-5-yl)morpholine] | < 100 | 17 |
| C[C@@H]1COCCN1c1cc(C2(C#N)CC2)c2snc(-c3ccn[nH]3)c2n1 [Example 51, (R)-1-(5-(3-methylmorpholino)-3-(1H-pyrazol-5-yl)isothiazolo[4,5-b]pyridin-7-yl)cyclopropane-1-carbonitrile] | < 100 | 15.9 |
| Cc1cc(-c2nsc3c(C4(C#N)CC4)cc(N4CCOC[C@H]4C)nc23)[nH]n1 [Example 52, (R)-1-(3-(3-methyl-1H-pyrazol-5-yl)-5-(3-methylmorpholino)isothiazolo [4,5-b]pyridin-7-yl)cyclopropane-1-carbonitrile] | < 100 | 17.7 |
| C[C@@H]1COCCN1c1cc(C(C)(C)C#N)c2snc(-c3ccn[nH]3)c2n1 [Example 53, (R)-2-methyl-2-(5-(3-methylmorpholino)-3-(1H-pyrazol-5-yl)isothiazolo [4,5-b]pyridin-7-yl)propanenitrile] | < 100 | 12.8 |
